{"source": "patent US12421211B2", "about": "“Heterocyclic compounds” (Hoffmann-La Roche Inc., priority 2021, dated 2025)", "note": "Structures can show the parent of a compound that is named as a salt.", "data": [{"tested_on": "Acinetobacter baumannii ATCC17961", "experiment": "Antimicrobial susceptibility testing: 90% growth inhibitory concentration (IC90) determination", "assay_type": "cell-based", "details": "Acinetobacter baumannii, ATCC17961, 16 h, 90% growth inhibitory concentration, Acinetobacter baumannii ATCC17961, Iso-Sensitest broth, OD 600 nm over 16 h; read-out: ATCC 17961 IC90", "how_it_was_run": "(§1)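 A. baumannii ATCC17961 at ~5×10^5 CFU/ml in Iso-Sensitest broth exposed to 10-point twofold dilutions (e.g. 50–0.097 μM final), 35±2° C. OD600 read every 20 minutes over 16h; IC50 and IC90 derived from inhibition during logarithmic growth.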", "units": {"IC90": "nM"}, "values": [{"smiles": "Cc1nn(-c2ccccn2)cc1-c1ccc(-c2cnc(C(=O)Nc3ccc(C(=O)N4CCN(C(=O)C5CC[N+](C)(C)CC5)CC4)c(Cl)c3)n2C)c(F)c1F", "note": "[Example F50, N-[3-chloro-4-[4-(1,1-dimethylpiperidin-1-ium-4-carbonyl)piperazine-1-carbonyl]phenyl]-5-[2,3-difluoro-4-[3-methyl-1-(2-pyridyl)pyrazol-4-yl]phenyl]-1-methyl-imidazole-2-carboxamide; formate]", "IC90": 1100}, {"smiles": "Cc1n[nH]cc1-c1ccc(-c2cnc(C(=O)Nc3ccc(C(=O)N4CCN(C(=O)C[N+](C)(C)C)CC4)c(Cl)c3)n2C)cc1", "note": "[Example F51, [2-[4-[2-chloro-4-[[1-methyl-5-[4-(3-methyl-1H-pyrazol-4-yl)phenyl]imidazole-2-carbonyl]amino]benzoyl]piperazin-1-yl]-2-oxo-ethyl]-trimethyl-ammonium; formate]", "IC90": 210}, {"smiles": "Cc1n[nH]c(C)c1-c1ccc(-c2cnc(C(=O)Nc3ccc(C(=O)N4CCN(C(=O)C[N+](C)(C)C)CC4)c(Cl)c3)n2C)cc1", "note": "[Example F52, [2-[4-[2-chloro-4-[[5-[4-(3,5-dimethyl-1H-pyrazol-4-yl)phenyl]-1-methyl-imidazole-2-carbonyl]amino]benzoyl]piperazin-1-yl]-2-oxo-ethyl]-trimethyl-ammonium; 2,2,2-trifluoroacetate]", "IC90": 270}, {"smiles": "COc1cccc(CCn2cc(-c3ccc(-c4cnc(C(=O)Nc5ccc(C(=O)N6CCN(C(=O)C7CC[N+](C)(C)CC7)CC6)c(Cl)c5)n4C)c(F)c3F)c(C)n2)n1", "note": "[Example F54, N-[3-chloro-4-[4-(1,1-dimethylpiperidin-1-ium-4-carbonyl)piperazine-1-carbonyl]phenyl]-5-[2,3-difluoro-4-[1-[2-(6-methoxy-2-pyridyl)ethyl]-3-methyl-pyrazol-4-yl]phenyl]-1-methyl-imidazole-2-carboxamide; formate]", "IC90": 590}, {"smiles": "COc1cccc(Cn2cc(-c3ccc(-c4cnc(C(=O)Nc5ccc(C(=O)N6CCN(C(=O)C7CC[N+](C)(C)CC7)CC6)c(Cl)c5)n4C)c(F)c3F)c(C)n2)n1", "note": "[Example F55, N-[3-chloro-4-[4-(1,1-dimethylpiperidin-1-ium-4-carbonyl)piperazine-1-carbonyl]phenyl]-5-[2,3-difluoro-4-[1-[(6-methoxy-2-pyridyl)methyl]-3-methyl-pyrazol-4-yl]phenyl]-1-methyl-imidazole-2-carboxamide; formate]", "IC90": 270}, {"smiles": "Cc1nn(Cc2c[nH]nn2)cc1-c1ccc(-c2cnc(C(=O)Nc3ccc(C(=O)N4CCN(C(=O)C5CC[N+](C)(C)CC5)CC4)c(Cl)c3)n2C)c(F)c1F", "note": "[Example F56, N-[3-chloro-4-[4-(1,1-dimethylpiperidin-1-ium-4-carbonyl)piperazine-1-carbonyl]phenyl]-5-[2,3-difluoro-4-[3-methyl-1-(1H-triazol-4-ylmethyl)pyrazol-4-yl]phenyl]-1-methyl-imidazole-2-carboxamide; formate]", "IC90": 330}, {"smiles": "COCCn1ncc(-c2ccc(-c3cnc(C(=O)Nc4ccc(C(=O)N5CCN(C(=O)C6CC[N+](C)(C)CC6)CC5)c(Cl)c4)n3C)c(F)n2)c1C", "note": "[Example F57, N-[3-chloro-4-[4-(1,1-dimethylpiperidin-1-ium-4-carbonyl)piperazine-1-carbonyl]phenyl]-5-[2-fluoro-6-[1-(2-methoxyethyl)-5-methyl-pyrazol-4-yl]-3-pyridyl]-1-methyl-imidazole-2-carboxamide; formate]", "IC90": 880}, {"smiles": "Cc1nn(CCCC#N)c(C)c1-c1ccc(-c2cnc(C(=O)Nc3ccc(C(=O)N4CCN(C(=O)[C@@H]5C[C@@H](O)C[N+]5(C)C)CC4)c(Cl)c3)n2C)c(F)c1F", "note": "[Example F58, N-[3-chloro-4-[4-[(2S,4R)-4-hydroxy-1,1-dimethyl-pyrrolidin-1-ium-2-carbonyl]piperazine-1-carbonyl]phenyl]-5-[4-[1-(3-cyanopropyl)-3,5-dimethyl-pyrazol-4-yl]-2,3-difluoro-phenyl]-1-methyl-imidazole-2-carboxamide; formate]", "IC90": 480}, {"smiles": "COc1ccc(-c2[nH]ncc2-c2ccc(-c3cnc(C(=O)Nc4ccc(C(=O)N5CCN(C(=O)C6CC[N+](C)(C)CC6)CC5)c(Cl)c4)n3C)c(F)n2)cc1", "note": "[Example F59, N-[3-chloro-4-[4-(1,1-dimethylpiperidin-1-ium-4-carbonyl)piperazine-1-carbonyl]phenyl]-5-[2-fluoro-6-[5-(4-methoxyphenyl)-1H-pyrazol-4-yl]-3-pyridyl]-1-methyl-imidazole-2-carboxamide; formate]", "IC90": 750}, {"smiles": "Cn1c(-c2ccc(-c3ccc(NCCC(N)=O)cn3)c(F)c2F)cnc1C(=O)Nc1ccc(C(=O)N2CCN(C(=O)C3CC[N+](C)(C)CC3)CC2)c(Cl)c1", "note": "[Example F63, 5-[4-[5-[(3-amino-3-oxo-propyl)amino]-2-pyridyl]-2,3-difluoro-phenyl]-N-[3-chloro-4-[4-(1,1-dimethylpiperidin-1-ium-4-carbonyl)piperazine-1-carbonyl]phenyl]-1-methyl-imidazole-2-carboxamide; formate]", "IC90": 560}, {"smiles": "Cc1cc(N)cnc1-c1ccc(-c2cnc(C(=O)Nc3ccc(C(=O)N4CCN(C(=O)C5CC[N+](C)(C)CC5)CC4)c(Cl)c3)n2C)c(F)c1F", "note": "[Example F64, 5-[4-(5-amino-3-methyl-2-pyridyl)-2,3-difluoro-phenyl]-N-[3-chloro-4-[4-(1,1-dimethylpiperidin-1-ium-4-carbonyl)piperazine-1-carbonyl]phenyl]-1-methyl-imidazole-2-carboxamide; formate]", "IC90": 250}, {"smiles": "Cn1c(-c2ccc(-c3ccc(N)cn3)c(F)c2F)cnc1C(=O)Nc1ccc(C(=O)N2CCN(C(=O)C3CC[N+](C)(C)CC3)CC2)c(Cl)c1", "note": "[Example F65, 5-[4-(5-amino-2-pyridyl)-2,3-difluoro-phenyl]-N-[3-chloro-4-[4-(1,1-dimethylpiperidin-1-ium-4-carbonyl)piperazine-1-carbonyl]phenyl]-1-methyl-imidazole-2-carboxamide; formate]", "IC90": 370}, {"smiles": "COCCn1ncc(-c2ccc(-c3cnc(C(=O)Nc4ccc(C(=O)N[C@H]5[C@@H]6CN(C(=O)N[C@@H]7C[N+](C)(C)C[C@H]7O)C[C@@H]65)c(Cl)c4)n3C)c(F)c2F)c1C", "note": "[Example F66, (1S,5R)-6-[[2-chloro-4-[[5-[2,3-difluoro-4-[1-(2-methoxyethyl)-5-methyl-pyrazol-4-yl]phenyl]-1-methyl-imidazole-2-carbonyl]amino]benzoyl]amino]-N-[(3R,4R)-4-hydroxy-1,1-dimethyl-pyrrolidin-1-ium-3-yl]-3-azabicyclo[3.1.0]hexane-3-carboxamide; formate]", "IC90": 29}, {"smiles": "COCCn1nc(C)c(-c2ccc(-c3cnc(C(=O)Nc4ccc(C(=O)N5CCN(C(=O)C6CC[N+](C)(C)CC6)CC5)c(Cl)c4)n3C)c(F)n2)c1C", "note": "[Example F67, N-[3-chloro-4-[4-(1,1-dimethylpiperidin-1-ium-4-carbonyl)piperazine-1-carbonyl]phenyl]-5-[2-fluoro-6-[1-(2-methoxyethyl)-3,5-dimethyl-pyrazol-4-yl]-3-pyridyl]-1-methyl-imidazole-2-carboxamide; formate]", "IC90": 1100}, {"smiles": "Cc1nn(CC(=O)NC(C)C)cc1-c1ccc(-c2cnc(C(=O)Nc3ccc(C(=O)N4CCN(C(=O)C5CC[N+](C)(C)CC5)CC4)c(Cl)c3)n2C)c(F)c1F", "note": "[Example G1, N-[3-chloro-4-[4-(1,1-dimethylpiperidin-1-ium-4-carbonyl)piperazine-1-carbonyl]phenyl]-5-[2,3-difluoro-4-[1-[2-(isopropylamino)-2-oxo-ethyl]-3-methyl-pyrazol-4-yl]phenyl]-1-methyl-imidazole-2-carboxamide; formate]", "IC90": 290}, {"smiles": "Cc1nn(CC(=O)NC(C)(C)C)cc1-c1ccc(-c2cnc(C(=O)Nc3ccc(C(=O)N4CCN(C(=O)C5CC[N+](C)(C)CC5)CC4)c(Cl)c3)n2C)c(F)c1F", "note": "[Example G2, 5-[4-[1-[2-(tert-butylamino)-2-oxo-ethyl]-3-methyl-pyrazol-4-yl]-2,3-difluoro-phenyl]-N-[3-chloro-4-[4-(1,1-dimethylpiperidin-1-ium-4-carbonyl)piperazine-1-carbonyl]phenyl]-1-methyl-imidazole-2-carboxamide; formate]", "IC90": 320}, {"smiles": "Cc1nn(CC(=O)NC23CC(C2)C3)cc1-c1ccc(-c2cnc(C(=O)Nc3ccc(C(=O)N4CCN(C(=O)C5CC[N+](C)(C)CC5)CC4)c(Cl)c3)n2C)c(F)c1F", "note": "[Example G3, 5-[4-[1-[2-(1-bicyclo[1.1.1]pentanylamino)-2-oxo-ethyl]-3-methyl-pyrazol-4-yl]-2,3-difluoro-phenyl]-N-[3-chloro-4-[4-(1,1-dimethylpiperidin-1-ium-4-carbonyl)piperazine-1-carbonyl]phenyl]-1-methyl-imidazole-2-carboxamide; formate]", "IC90": 100}, {"smiles": "Cc1nn(CC(=O)Nc2ccccc2F)cc1-c1ccc(-c2cnc(C(=O)Nc3ccc(C(=O)N4CCN(C(=O)C5CC[N+](C)(C)CC5)CC4)c(Cl)c3)n2C)c(F)c1F", "note": "[Example G6, N-[3-chloro-4-[4-(1,1-dimethylpiperidin-1-ium-4-carbonyl)piperazine-1-carbonyl]phenyl]-5-[2,3-difluoro-4-[1-[2-(2-fluoroanilino)-2-oxo-ethyl]-3-methyl-pyrazol-4-yl]phenyl]-1-methyl-imidazole-2-carboxamide; formate]", "IC90": 140}]}, {"tested_on": "Acinetobacter baumannii ATCC17961", "experiment": "Antimicrobial susceptibility testing: 90% growth inhibitory concentration (IC90) determination", "assay_type": "cell-based", "details": "Acinetobacter baumannii, ATCC17961, 16 h, read-out: ATCC 17961 IC90", "how_it_was_run": "as §1", "units": {"IC90": "nM"}, "values": [{"smiles": "Cc1nn(CC(=O)NC23CC(C#N)(C2)C3)cc1-c1ccc(-c2cnc(C(=O)Nc3ccc(C(=O)N4CCN(C(=O)C5CC[N+](C)(C)CC5)CC4)c(Cl)c3)n2C)c(F)c1F", "note": "[Example G4, N-[3-chloro-4-[4-(1,1-dimethylpiperidin-1-ium-4-carbonyl)piperazine-1-carbonyl]phenyl]-5-[4-[1-[2-[(3-cyano-1-bicyclo[1.1.1]pentanyl)amino]-2-oxo-ethyl]-3-methyl-pyrazol-4-yl]-2,3-difluoro-phenyl]-1-methyl-imidazole-2-carboxamide; formate]", "IC90": 190}]}]}
